Measurements published in BindingDB's records for doi:10.1016/j.bmcl.2021.128008 (National Institute of Diabetes and Digestive and Kidney …, 2021).

Target: D(1B) dopamine receptor (Homo sapiens, UniProt P21918)
Test: Inhibition of dopamine D5 receptor (unknown origin)

Chain of D(1B) dopamine receptor (P21918 whole entry): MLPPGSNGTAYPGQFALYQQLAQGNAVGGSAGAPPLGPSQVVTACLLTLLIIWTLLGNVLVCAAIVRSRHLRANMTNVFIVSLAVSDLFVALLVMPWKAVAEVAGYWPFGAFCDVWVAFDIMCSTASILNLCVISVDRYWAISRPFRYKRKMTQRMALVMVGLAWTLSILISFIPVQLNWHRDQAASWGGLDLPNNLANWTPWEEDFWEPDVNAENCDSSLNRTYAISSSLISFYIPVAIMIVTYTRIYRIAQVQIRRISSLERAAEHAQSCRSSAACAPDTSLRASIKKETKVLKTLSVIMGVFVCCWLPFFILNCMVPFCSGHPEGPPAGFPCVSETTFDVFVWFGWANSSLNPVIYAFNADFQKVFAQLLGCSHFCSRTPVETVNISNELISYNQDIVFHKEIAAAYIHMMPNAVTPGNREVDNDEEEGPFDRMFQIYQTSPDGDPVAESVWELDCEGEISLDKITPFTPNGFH

Ki: 2.1 µM
Structure (SMILES): CC(C)(C)C#Cc1ccc2c(c1)C=C([N+](=O)[O-])C(C(F)(F)F)O2 (stereo unspecified)
